For the experiment, the target named is T1, α7 nicotinic acetylcholine receptor (α7nAChR) (Mus musculus, UniProt P49582).
T1 construct: gene Chrna7; native receptor in hippocampal CA1 pyramidal cells (slices)
In words: whole-cell patch-clamp of ACh-evoked currents in mouse hippocampal slices, dose-response. On the technique in general: The patch-clamp technique gives a direct electrical read-out from membranes.

T1 sequence (P49582 23-502): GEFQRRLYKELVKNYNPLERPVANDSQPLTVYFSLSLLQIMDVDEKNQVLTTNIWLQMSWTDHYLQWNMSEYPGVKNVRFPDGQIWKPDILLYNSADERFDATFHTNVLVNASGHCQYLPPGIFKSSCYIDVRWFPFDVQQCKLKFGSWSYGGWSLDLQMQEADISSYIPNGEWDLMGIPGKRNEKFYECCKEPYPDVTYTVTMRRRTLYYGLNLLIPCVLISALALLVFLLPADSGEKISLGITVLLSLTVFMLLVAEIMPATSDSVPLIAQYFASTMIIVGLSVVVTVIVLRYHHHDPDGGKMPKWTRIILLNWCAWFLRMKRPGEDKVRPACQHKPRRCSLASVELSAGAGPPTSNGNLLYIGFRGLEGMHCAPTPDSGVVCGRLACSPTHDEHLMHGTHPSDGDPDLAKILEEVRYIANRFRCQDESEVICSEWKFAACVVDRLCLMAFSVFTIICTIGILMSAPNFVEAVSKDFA

Turning to `CC(=O)OCC[N+](C)(C)C` [ACh, acetylcholine], the EC50 amounted to 117.1 ± 0.94 µM.

The term EC50 denotes the midpoint of the concentration-response curve. High values mean lower potency in that assay, low ones higher potency in that assay.

The record behind these values is paper PMC5906710, “Simvastatin Enhances Activity and Trafficking of α7 Nicotinic Acetylcholine Receptor in Hippocampal Neurons Through PKC and CaMKII Signaling Pathways” (Frontiers in Pharmacology, 2018).
